According to ChEMBL document CHEMBL5131517 (ACS Med Chem Lett, 2022):

Columns and labels:
[1] = target: T1, Muscarinic acetylcholine receptor M4 (Homo sapiens) (UniProt P08173); test: Inhibition of M4 receptor (unknown origin); settings: concentration not given here
T1 sequence (whole entry): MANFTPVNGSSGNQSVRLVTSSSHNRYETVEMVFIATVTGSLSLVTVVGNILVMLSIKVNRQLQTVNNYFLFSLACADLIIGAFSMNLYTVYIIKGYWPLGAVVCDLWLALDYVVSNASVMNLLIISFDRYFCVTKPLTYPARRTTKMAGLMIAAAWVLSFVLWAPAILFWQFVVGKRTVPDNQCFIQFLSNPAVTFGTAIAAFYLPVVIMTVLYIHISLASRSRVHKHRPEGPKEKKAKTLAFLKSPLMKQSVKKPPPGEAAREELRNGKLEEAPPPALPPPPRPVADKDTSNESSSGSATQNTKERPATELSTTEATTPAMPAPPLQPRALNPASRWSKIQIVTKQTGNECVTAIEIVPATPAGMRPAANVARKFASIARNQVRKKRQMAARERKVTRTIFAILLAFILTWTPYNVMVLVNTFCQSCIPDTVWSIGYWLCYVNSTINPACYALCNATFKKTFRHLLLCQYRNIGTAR

[2] = target: Histamine H4 receptor (Homo sapiens) (UniProt Q9H3N8); test: Inhibition of H4 receptor (unknown origin); settings: concentration not given here
Chain of Histamine H4 receptor (Homo sapiens) (Q9H3N8 whole entry): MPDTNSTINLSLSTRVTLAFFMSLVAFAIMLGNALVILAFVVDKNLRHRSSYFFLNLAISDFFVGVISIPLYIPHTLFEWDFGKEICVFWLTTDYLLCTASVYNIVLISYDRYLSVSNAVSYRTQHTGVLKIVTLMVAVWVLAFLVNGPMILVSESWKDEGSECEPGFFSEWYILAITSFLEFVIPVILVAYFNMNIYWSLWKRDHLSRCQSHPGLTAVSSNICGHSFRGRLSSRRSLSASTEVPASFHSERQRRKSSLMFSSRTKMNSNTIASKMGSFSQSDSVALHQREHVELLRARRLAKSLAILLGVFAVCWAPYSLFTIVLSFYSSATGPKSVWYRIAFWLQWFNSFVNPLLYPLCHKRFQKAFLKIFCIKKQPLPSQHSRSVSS

D(4) dopamine receptor = D(4) dopamine receptor (Homo sapiens, UniProt P21917); test: Binding affinity to D4 receptor (unknown origin) assessed as inhibition constant
Chain of D(4) dopamine receptor (P21917 whole entry): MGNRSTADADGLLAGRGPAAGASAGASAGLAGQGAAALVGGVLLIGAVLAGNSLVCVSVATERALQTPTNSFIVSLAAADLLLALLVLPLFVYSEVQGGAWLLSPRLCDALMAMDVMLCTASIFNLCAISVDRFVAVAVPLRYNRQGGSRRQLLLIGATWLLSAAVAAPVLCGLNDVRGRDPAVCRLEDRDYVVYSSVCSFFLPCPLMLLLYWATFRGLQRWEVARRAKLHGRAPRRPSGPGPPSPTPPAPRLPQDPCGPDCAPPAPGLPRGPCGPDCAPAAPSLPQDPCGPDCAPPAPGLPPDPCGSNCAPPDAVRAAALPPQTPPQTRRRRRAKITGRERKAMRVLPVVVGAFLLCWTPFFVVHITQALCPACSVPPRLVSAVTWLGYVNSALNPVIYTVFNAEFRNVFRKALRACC

[3] = target: 5-hydroxytryptamine receptor 5A (Homo sapiens, UniProt P47898); test: Binding affinity to 5HT5A receptor (unknown origin) assessed as inhibition constant
Chain of 5-hydroxytryptamine receptor 5A (P47898 whole entry): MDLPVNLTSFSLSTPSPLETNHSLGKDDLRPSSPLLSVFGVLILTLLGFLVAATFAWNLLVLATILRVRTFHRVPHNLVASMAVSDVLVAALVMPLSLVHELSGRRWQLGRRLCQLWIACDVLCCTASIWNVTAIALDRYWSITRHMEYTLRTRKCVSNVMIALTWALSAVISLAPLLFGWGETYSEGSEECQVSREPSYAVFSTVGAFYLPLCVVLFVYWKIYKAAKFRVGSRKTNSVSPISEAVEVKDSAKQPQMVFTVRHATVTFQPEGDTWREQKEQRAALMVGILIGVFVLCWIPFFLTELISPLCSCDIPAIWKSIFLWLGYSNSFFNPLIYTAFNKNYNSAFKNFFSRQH

[4] = target: 5-hydroxytryptamine receptor 2A (Homo sapiens, UniProt P28223); test: Agonist activity at human 5HT2A receptor stably expressed in Flp-In-T-REx-293 cells assessed as maximal Gq-mediated calcium flux by Fluo-4 direct dye based FLIPR Tetra assay relative to control; assay type: functional, cell-based; settings: filed as agonist
Chain of 5-hydroxytryptamine receptor 2A (P28223 whole entry): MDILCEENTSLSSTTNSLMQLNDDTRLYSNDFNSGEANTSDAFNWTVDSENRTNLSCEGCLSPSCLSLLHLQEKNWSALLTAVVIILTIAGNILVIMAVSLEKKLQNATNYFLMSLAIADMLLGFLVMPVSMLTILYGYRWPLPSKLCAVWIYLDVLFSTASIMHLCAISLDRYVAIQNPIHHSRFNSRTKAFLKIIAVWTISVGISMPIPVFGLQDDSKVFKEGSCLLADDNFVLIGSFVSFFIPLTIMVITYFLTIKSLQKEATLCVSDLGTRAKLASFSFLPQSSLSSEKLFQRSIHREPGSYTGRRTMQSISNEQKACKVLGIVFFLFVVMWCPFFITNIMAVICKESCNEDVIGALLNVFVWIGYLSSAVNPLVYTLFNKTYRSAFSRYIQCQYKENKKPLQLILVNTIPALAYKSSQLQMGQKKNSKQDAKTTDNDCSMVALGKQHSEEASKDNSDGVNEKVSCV

Homo sapiens = species: Homo sapiens; test: Inhibition of BZP receptor (unknown origin); settings: concentration not given here
[5] = target: 5-hydroxytryptamine receptor 1B (Homo sapiens, UniProt P28222); test: Binding affinity to 5HT1B receptor (unknown origin) assessed as inhibition constant
Chain of 5-hydroxytryptamine receptor 1B (P28222 whole entry): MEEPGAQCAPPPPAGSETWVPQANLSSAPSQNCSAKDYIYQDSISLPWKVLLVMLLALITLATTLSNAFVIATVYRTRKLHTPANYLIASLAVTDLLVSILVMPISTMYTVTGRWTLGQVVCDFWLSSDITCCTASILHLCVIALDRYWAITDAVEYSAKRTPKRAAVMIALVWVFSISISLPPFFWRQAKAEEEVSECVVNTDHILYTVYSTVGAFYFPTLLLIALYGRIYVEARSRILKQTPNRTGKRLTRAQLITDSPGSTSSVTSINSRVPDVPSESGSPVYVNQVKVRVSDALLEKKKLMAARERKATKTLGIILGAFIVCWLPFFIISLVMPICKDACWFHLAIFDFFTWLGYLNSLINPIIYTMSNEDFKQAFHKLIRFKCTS

[6] = target: Mu-type opioid receptor (Homo sapiens) (UniProt P35372); test: Inhibition of MOR receptor (unknown origin); settings: concentration not given here
Chain of Mu-type opioid receptor (Homo sapiens) (P35372 whole entry): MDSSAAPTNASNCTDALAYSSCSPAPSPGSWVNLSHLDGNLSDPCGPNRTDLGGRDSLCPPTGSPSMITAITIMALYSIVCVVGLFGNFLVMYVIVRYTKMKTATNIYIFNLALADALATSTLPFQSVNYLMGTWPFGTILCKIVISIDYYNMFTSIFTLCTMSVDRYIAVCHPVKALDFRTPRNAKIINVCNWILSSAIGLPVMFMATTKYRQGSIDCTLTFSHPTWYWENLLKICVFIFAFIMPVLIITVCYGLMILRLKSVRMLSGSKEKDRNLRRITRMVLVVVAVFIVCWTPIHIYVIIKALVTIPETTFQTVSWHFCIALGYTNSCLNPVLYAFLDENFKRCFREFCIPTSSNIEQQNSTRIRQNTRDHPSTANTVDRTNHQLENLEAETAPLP

[7] = target: D(2) dopamine receptor (Homo sapiens) (UniProt P14416); test: Inhibition of D2 receptor (unknown origin); settings: concentration not given here
Chain of D(2) dopamine receptor (Homo sapiens) (P14416 whole entry): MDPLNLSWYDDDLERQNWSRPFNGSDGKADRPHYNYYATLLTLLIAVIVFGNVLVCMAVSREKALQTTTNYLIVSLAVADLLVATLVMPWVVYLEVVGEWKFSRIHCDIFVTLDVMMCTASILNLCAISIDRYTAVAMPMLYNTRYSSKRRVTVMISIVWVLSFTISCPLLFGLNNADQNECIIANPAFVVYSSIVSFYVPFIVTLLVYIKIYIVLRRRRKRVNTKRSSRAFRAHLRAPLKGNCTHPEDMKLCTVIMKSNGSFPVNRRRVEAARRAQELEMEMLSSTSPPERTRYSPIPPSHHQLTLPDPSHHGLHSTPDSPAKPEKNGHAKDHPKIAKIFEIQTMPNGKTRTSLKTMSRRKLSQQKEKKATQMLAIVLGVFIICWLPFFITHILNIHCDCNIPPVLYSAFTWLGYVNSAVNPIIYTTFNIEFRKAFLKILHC

[8] = target: GABA-A receptor; anion channel (Homo sapiens) (UniProt P14867+P47870+P18507+P28472+P48169+Q99928+Q9UN88+P34903+O00591+O14764+Q8N1C3+P18505+P78334+P47869+P31644+Q16445); test: Inhibition of GABA-A receptor (unknown origin); assay type: protein-complex assay; settings: concentration not given here
[9] = target: 5-hydroxytryptamine receptor 2B (Homo sapiens, UniProt P41595); test: Agonist activity at human 5HT2B receptor stably expressed in Flp-In-T-REx-293 cells assessed as increase in Gq-mediated calcium flux by Fluo-4 direct dye based FLIPR Tetra assay; assay type: functional, cell-based
Chain of 5-hydroxytryptamine receptor 2B (P41595 whole entry): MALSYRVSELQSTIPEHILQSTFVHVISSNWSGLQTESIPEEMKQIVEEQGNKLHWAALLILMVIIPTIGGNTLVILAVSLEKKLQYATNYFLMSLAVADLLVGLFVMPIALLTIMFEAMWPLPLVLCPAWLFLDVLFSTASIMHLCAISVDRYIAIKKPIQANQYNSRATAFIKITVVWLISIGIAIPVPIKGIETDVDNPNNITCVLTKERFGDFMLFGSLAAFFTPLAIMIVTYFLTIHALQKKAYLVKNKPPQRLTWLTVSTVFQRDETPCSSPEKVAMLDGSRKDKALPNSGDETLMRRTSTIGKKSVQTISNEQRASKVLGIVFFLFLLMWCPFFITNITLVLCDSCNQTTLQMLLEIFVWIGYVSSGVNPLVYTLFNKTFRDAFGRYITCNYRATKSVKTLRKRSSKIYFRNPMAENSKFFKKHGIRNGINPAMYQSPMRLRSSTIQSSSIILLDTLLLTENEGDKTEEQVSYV

[10] = target: T2, Alpha-2B adrenergic receptor (Homo sapiens) (UniProt P18089); test: Inhibition of alpha2B receptor (unknown origin); settings: concentration not given here
T2 sequence (whole entry): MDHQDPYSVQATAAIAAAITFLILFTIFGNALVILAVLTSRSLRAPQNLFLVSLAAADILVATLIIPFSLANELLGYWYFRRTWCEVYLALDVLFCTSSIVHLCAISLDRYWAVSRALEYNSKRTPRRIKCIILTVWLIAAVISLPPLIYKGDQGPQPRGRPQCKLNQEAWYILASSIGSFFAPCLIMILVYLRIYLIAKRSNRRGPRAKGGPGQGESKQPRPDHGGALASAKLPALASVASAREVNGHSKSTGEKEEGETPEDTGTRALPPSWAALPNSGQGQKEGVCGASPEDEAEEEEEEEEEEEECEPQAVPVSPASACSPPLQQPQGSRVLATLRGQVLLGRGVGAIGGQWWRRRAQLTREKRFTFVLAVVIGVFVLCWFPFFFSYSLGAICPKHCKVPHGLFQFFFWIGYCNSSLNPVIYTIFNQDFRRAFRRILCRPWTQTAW

[11] = target: T3, Muscarinic acetylcholine receptor M2 (Homo sapiens) (UniProt P08172); test: Inhibition of M2 receptor (unknown origin); settings: concentration not given here
T3 sequence (whole entry): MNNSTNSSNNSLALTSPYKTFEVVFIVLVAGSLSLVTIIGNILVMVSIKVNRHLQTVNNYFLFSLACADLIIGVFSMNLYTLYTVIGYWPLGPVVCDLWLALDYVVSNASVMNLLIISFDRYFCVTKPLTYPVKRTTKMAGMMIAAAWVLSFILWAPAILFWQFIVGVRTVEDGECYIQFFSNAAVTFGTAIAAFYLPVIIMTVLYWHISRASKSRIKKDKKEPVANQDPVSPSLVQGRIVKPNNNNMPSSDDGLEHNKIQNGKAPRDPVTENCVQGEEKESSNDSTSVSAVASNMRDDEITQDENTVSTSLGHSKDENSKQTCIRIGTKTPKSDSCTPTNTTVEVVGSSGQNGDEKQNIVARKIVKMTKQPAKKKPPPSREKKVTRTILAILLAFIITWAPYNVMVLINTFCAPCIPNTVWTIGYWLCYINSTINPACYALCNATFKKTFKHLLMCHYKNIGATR

[12] = target: T4, Alpha-2A adrenergic receptor (Homo sapiens) (UniProt P08913); test: Inhibition of alpha2A receptor (unknown origin); settings: concentration not given here
T4 sequence (whole entry): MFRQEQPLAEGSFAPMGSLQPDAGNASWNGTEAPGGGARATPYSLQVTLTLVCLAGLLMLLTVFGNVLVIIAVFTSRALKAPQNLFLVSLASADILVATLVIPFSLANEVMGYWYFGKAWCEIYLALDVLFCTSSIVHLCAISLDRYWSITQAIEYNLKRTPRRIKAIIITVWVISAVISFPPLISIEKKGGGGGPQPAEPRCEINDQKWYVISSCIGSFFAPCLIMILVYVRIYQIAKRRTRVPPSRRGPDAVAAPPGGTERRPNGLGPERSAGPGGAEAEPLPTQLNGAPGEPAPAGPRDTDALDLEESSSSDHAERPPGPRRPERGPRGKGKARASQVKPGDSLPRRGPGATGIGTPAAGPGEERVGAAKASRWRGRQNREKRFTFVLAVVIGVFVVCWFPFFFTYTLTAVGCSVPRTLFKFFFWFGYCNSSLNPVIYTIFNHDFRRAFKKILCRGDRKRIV

[13] = target: T5, Beta-1 adrenergic receptor (Homo sapiens, UniProt P08588); test: Inhibition of beta1 receptor (unknown origin); settings: concentration not given here
Target sequence in this assay (P08588 whole entry, looked up): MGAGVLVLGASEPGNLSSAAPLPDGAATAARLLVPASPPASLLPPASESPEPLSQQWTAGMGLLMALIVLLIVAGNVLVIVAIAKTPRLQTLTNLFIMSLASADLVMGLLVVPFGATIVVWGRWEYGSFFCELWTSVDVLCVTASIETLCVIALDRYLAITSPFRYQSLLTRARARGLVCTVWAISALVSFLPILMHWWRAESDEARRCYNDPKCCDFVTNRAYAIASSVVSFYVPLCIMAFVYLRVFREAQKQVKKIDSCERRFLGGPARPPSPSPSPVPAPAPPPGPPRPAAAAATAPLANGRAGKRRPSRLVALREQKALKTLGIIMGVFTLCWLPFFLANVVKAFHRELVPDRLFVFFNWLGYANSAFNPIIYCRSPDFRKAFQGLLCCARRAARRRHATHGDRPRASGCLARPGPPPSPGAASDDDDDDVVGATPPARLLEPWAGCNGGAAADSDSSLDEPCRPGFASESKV

D(3) dopamine receptor = D(3) dopamine receptor (Homo sapiens, UniProt P35462); test: Inhibition of D3 receptor (unknown origin); settings: concentration not given here
Chain of D(3) dopamine receptor (P35462 whole entry): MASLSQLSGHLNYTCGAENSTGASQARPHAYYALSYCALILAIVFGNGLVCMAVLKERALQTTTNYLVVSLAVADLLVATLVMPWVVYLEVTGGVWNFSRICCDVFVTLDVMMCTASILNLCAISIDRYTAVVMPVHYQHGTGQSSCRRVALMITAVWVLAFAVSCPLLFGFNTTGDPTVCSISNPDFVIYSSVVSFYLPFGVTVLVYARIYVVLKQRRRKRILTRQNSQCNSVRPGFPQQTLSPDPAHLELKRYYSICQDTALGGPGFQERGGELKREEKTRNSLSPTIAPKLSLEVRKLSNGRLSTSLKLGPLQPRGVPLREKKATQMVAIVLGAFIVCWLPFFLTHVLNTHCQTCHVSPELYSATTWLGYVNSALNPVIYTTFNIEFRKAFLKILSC

[14] = target: D(4) dopamine receptor (Homo sapiens) (UniProt P21917); test: Inhibition of D4 receptor (unknown origin); settings: concentration not given here
Chain of D(4) dopamine receptor (Homo sapiens) (P21917 whole entry): as the sequence (P21917 whole entry) above

[15] = target: T5, Beta-1 adrenergic receptor; test: Binding affinity to beta1 receptor (unknown origin) assessed as inhibition constant
Target sequence in this assay (P08588 whole entry): as the sequence (P08588 whole entry, looked up) above

[16] = target: 5-hydroxytryptamine receptor 3A (Homo sapiens) (UniProt P46098); test: Inhibition of 5HT3 receptor (unknown origin); settings: concentration not given here
Chain of 5-hydroxytryptamine receptor 3A (Homo sapiens) (P46098 whole entry): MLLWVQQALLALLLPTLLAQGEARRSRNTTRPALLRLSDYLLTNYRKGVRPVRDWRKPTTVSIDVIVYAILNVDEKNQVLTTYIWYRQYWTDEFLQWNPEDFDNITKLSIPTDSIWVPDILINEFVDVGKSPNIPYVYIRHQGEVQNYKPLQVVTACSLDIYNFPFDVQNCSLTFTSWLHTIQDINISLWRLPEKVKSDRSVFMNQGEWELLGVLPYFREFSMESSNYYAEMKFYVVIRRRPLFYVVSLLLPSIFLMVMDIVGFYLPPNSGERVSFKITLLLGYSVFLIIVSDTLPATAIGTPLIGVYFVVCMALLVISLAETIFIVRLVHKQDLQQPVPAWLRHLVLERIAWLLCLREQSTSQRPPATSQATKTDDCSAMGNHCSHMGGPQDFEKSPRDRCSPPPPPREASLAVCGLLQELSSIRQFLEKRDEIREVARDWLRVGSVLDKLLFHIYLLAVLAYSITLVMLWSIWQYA

Row | SMILES | inhibition [1] | inhibition [2] | Ki (D(4) dopamine receptor) | Ki [3] | Emax [4] | inhibition (Homo sapiens) | Ki [5] | inhibition [6] | inhibition [7] | inhibition [8] | EC50 ([9]; read-out: EC50) | inhibition [10] | inhibition [11] | inhibition [12] | inhibition [13] | inhibition (D(3) dopamine receptor) | inhibition [14] | Ki [15] | EC50 ([9]; read-out: pEC50 (converted)) | inhibition [16]
1 | COc1ccc(C2NCCc3c2[nH]c2ccc(Cl)cc32)c(O)c1 (stereo not given) | < 50% | < 50% | 609 nM | 177 nM | 100% | < 50% | 164 nM | < 50% | < 50% | < 50% | 3.1 nM | < 50% | < 50% | < 50% | < 50% |  |  |  |  | 
2 | COc1cc(OC)c(C2NCCc3c2[nH]c2ccc(Cl)cc32)cc1OC (stereo not given) | < 50% | < 50% |  | 69.5 nM | 98.4% | < 50% | 52.1 nM | < 50% | < 50% | < 50% | 0.58 nM | < 50% | < 50% | < 50% |  | < 50% | < 50% | 1470 nM |  | 
3 | COc1cc(OC)c(C2NCCc3c2[nH]c2ccc(F)cc32)cc1OC (stereo not given) | < 50% | < 50% |  | 2840 nM | 97.1% | < 50% |  | < 50% | < 50% | < 50% | 10 nM | < 50% | < 50% | < 50% |  | < 50% | < 50% | 961 nM | 11 nM | < 50%
4 | COc1ccc(C2NCCc3c2[nH]c2ccc(F)cc32)c(O)c1 (stereo not given) | < 50% | < 50% | 362 nM | 229 nM | 102% | < 50% | 70.8 nM | < 50% | < 50% | < 50% | 1.3 nM | < 50% | < 50% | < 50% | < 50% | < 50% |  |  |  | < 50%
